Converted amounts (≈) assume the structure as drawn. Bounds are passed on as bounds.

One series deals with K562. The series is described as follows: Cytotoxicity against human K562 cells after 72 hrs by Alamar blue assay. The series is classed as functional. Particulars: K562, 72 h. A general note: Resazurin is reduced to fluorescent resorufin, in cell work by metabolically active cells.
Another series relates to HCT-116. In words: Cytotoxicity against human HCT116 cells after 72 hrs by Alamar blue assay. It is filed as functional. To be noted: HCT-116, 72 h.
The subject of the next series is NCI-H1299. The series is described as follows: Cytotoxicity against human NCI-H1299 cells after 72 hrs by Alamar blue assay. The series is classed as functional. To be noted: NCI-H1299, 72 h.
The subject of a further series is BXPC-3. The series is described as follows: Cytotoxicity against human BxPC3 cells after 72 hrs by Alamar blue assay. It is filed as functional. To be noted: BXPC-3, 72 h.
The nature of series [1]: Solubility of the compound in phosphate buffered saline at pH 7.4 after 2 hrs by turbidimetric analysis. The series is classed as physicochemical.
The nature of series [2]: Cytotoxicity against wild type human KB-3-1 cells. It is filed as functional.
A short description of series [3]: Cytotoxicity against human KBV1 cells expressing p-glycoprotein. It is filed as functional. To be noted: KB-V1.
In a further series the test system is KB-V1. The series is described as follows: Multidrug resistant ratio of GI50 for human KBV1 cells expressing p-glycoprotein to GI50 for wild type human KB-3-1 cells. It is filed as functional.
The target in series [4] is T1, Kinesin-like protein KIF11 (Homo sapiens, UniProt P52732).
T1 sequence (P52732 whole entry): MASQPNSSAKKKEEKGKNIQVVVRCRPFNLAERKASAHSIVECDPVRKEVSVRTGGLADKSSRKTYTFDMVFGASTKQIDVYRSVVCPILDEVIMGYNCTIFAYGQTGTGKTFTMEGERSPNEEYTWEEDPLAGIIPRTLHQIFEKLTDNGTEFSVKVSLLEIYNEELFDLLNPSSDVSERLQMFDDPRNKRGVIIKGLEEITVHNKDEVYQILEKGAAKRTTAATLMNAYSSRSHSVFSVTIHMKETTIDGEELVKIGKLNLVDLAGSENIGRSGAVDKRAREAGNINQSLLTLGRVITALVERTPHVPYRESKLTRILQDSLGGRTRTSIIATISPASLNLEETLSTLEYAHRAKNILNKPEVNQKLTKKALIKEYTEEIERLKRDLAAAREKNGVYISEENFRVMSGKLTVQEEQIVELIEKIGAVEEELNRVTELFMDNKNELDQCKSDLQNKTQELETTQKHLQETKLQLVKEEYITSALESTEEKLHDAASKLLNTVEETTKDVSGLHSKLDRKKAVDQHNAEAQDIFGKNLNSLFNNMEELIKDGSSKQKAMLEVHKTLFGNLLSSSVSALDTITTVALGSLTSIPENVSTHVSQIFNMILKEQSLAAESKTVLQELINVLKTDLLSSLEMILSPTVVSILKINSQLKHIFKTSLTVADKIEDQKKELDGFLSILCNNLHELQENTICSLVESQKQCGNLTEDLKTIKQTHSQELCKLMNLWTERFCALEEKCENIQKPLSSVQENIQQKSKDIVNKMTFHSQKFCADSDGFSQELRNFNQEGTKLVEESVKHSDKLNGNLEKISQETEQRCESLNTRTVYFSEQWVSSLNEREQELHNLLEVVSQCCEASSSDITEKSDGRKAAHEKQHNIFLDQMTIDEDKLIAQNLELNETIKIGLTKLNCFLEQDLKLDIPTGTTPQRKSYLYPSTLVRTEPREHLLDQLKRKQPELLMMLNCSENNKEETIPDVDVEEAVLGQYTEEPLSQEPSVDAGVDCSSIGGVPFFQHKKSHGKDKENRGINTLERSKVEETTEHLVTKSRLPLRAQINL
Description: Inhibition of basal ATPase activity of Eg5 by coupled pyruvate kinase/lactate dehydrogenase assay

Usually GI50 stands for the concentration giving 50% growth inhibition. Lower therefore signals more potent growth inhibition. By solubility (kinetic) is commonly meant the concentration staying in solution when a stock, usually in DMSO, is diluted into the medium. For orientation: IC50 means the midpoint of a concentration-inhibition curve. Turning to `N[C@@H](CSC(Cc1ccccc1)(c1ccccc1)c1ccccc1)C(=O)O`, the GI50 with K562 is 3.14 µM; with HCT-116, 2370 nM; in the series with NCI-H1299, 6.87 µM; with BXPC-3 it was 14.3 µM; in series [2] it was 5.33 µM; in series [3], above 50 µM. The kinetic solubility at 2 h in [1] is above 100 µM. Moreover, the RatioGI50 in the series with KB-V1 is on record as above 10. In series [4], this compound came in with a 50% inhibitory concentration (IC50) of 138 nM.

In series [1], `NCCSC(Cc1ccccc1)(c1ccccc1)c1ccccc1` yielded a kinetic solubility at 2 h above 100 µM. The IC50 in [4] amounted to 684 nM.

In the case of `N[C@@H](CSC(CCc1ccccc1)(c1ccccc1)c1ccccc1)C(=O)O`, in series [4], the IC50 was determined as 15800 nM.

The compound `N[C@@H](CSC(C(=O)c1ccccc1)(c1ccccc1)c1ccccc1)C(=O)O` displayed an IC50 in [4] above 150000 nM.

In series [4], `N[C@@H](CSC(Cc1cccc(Cl)c1)(c1ccccc1)c1ccccc1)C(=O)O` showed a concentration for half-maximal inhibition (IC50) of 238 nM.

Turning to `N[C@@H](CSC(Cc1ccc(Cl)cc1)(c1ccccc1)c1ccccc1)C(=O)O`, the half-inhibitory concentration (IC50) in series [4] is 456 nM.

In the case of `N[C@@H](CSC(Cc1ccc(Cl)c(Cl)c1)(c1ccccc1)c1ccccc1)C(=O)O`, the midpoint of inhibition in series [4], the IC50, lay at 5280 nM.

As for `NCCSC(c1ccccc1)(c1ccccc1)c1ccncc1`, it took 942 nM to reach half-maximal inhibition in [4] (IC50).

Turning to `NCCSC(C(=O)c1ccccc1)(c1ccccc1)c1ccccc1`, in [4], the half-inhibitory concentration (IC50) is above 50000 nM.

With `N[C@@H](CSC(Cc1ccccc1)(c1ccc(Cl)cc1)c1ccc(Cl)cc1)C(=O)O`, the IC50 in series [4] is 252 nM.

Take `Cc1ccc(C(Cc2ccccc2)(SC[C@H](N)C(=O)O)c2ccc(C)cc2)cc1`: growth with K562 was halved (GI50) at 2.79 µM. This compound showed an IC50 in [4] of 106 nM.

In the case of `NCCSC(Cc1ccccc1)(c1ccc(F)cc1)c1ccc(F)cc1`, in series [4], the midpoint of inhibition, the IC50, lay at 588 nM.

On to `NCCSC(Cc1ccccc1)(c1ccc(Cl)cc1)c1ccc(Cl)cc1`, for which the IC50 in series [4] is 404 nM.

Turning to `Cc1ccc(C(Cc2ccccc2)(SCCN)c2ccc(C)cc2)cc1`, the IC50 in series [4] was found to be 261 nM.

In turn, `N[C@@H](CSC(c1ccccc1)(c1ccccc1)c1ccncc1)C(=O)O` displayed a 50% inhibitory concentration (IC50) in series [4] of 514 nM.

In turn, `NCCSC(c1ccccc1)(c1ccccc1)c1ccccc1` displayed a 50% inhibitory concentration (IC50) in series [4] of 241 nM.

For the compound `N[C@@H](CSC(Cc1ccccc1)(c1ccccc1)c1ccccc1F)C(=O)O` (mixture of isomers), inhibition in [4] was half-maximal at 217 nM (IC50).

The compound `N[C@@H](CSC(Cc1ccccc1)(c1ccccc1)c1cccc(Cl)c1)C(=O)O` (mixture of isomers) came in with a 50% growth inhibitory concentration (GI50) in the series on K562 of 4.54 µM. This compound came in with a concentration for half-maximal inhibition (IC50) in series [4] of 129 nM.

Consider `N[C@@H](CSC(Cc1ccccc1)(c1ccccc1)c1cccc(O)c1)C(=O)O` (mixture of isomers), for which the GI50 in the series on K562 turned out to be 17.7 µM. The compound also registered an IC50 in [4] of 67.6 nM.

In the series with K562, `N[C@@H](CSC(Cc1ccccc1)(c1ccccc1)c1ccc(F)cc1)C(=O)O` (mixture of isomers) came in with a GI50 of 6.09 µM. In addition, inhibition in [4] was half-maximal at 151 nM (IC50).

Consider `N[C@@H](CSC(Cc1ccccc1)(c1ccccc1)c1ccc(Cl)cc1)C(=O)O` (mixture of isomers), for which the concentration for 50% growth inhibition (GI50) with K562 is 2.47 µM; in the series on HCT-116, 2080 nM; in the series on NCI-H1299, 3.63 µM; in the series with BXPC-3, 3.79 µM; in [2], 4.89 µM; in series [3] it was above 50 µM. For the same compound, the RatioGI50 with KB-V1 is listed as above 10. The compound also yielded a 50% inhibitory concentration (IC50) in series [4] of 58.6 nM.

On to `Cc1ccc(C(Cc2ccccc2)(SC[C@H](N)C(=O)O)c2ccccc2)cc1` (mixture of isomers), for which the concentration for 50% growth inhibition (GI50) is 1.44 µM in the series with K562; 1490 nM with HCT-116; 2.43 µM in the series with NCI-H1299; 4.33 µM in the series with BXPC-3; 2.44 µM in [2]; above 50 µM in series [3]. In series [1], this compound yielded a solubility (kinetic) at 2 h of 11.5 µM. In the series on KB-V1, the RatioGI50 was above 20. Moreover, the concentration for half-maximal inhibition (IC50) in series [4] stood at 168 nM.

Take `N[C@@H](CSC(Cc1ccccc1)(c1ccccc1)c1ccc(O)cc1)C(=O)O` (mixture of isomers): in the series on K562, halving of growth (GI50) required 18.2 µM. Besides, it took 159 nM to reach half-maximal inhibition in [4] (IC50).

The compound `N[C@@H](CSC(Cc1ccccc1)(c1ccccc1)c1ccc(Cl)c(Cl)c1)C(=O)O` (mixture of isomers) had an IC50 in series [4] of 191 nM.

In series [4], `N[C@@H](CSC(Cc1ccccc1)(c1ccc(Cl)cc1)c1cccc(Cl)c1)C(=O)O` (mixture of isomers) registered an IC50 of 568 nM.

Regarding `N[C@@H](CSC(Cc1ccccc1)(c1ccc(F)cc1)c1ccc(F)cc1)C(=O)O` (mixture of isomers), the concentration for 50% growth inhibition (GI50) in the series on K562 turned out to be 5.12 µM. The 50% inhibitory concentration (IC50) in series [4] turned out to be 178 nM.

As to `NCCSC(Cc1ccccc1)(c1ccccc1)c1ccccc1F` (racemic), the IC50 in [4] is 790 nM.

`NCCSC(Cc1ccccc1)(c1ccccc1)c1cccc(Cl)c1` (racemic) registered an IC50 in series [4] of 519 nM.

The compound `NCCSC(Cc1ccccc1)(c1ccccc1)c1cccc(O)c1` (racemic) displayed a 50% growth inhibitory concentration (GI50) in the series with K562 of 2.73 µM. Also, in series [4], it took 256 nM to reach half-maximal inhibition (IC50).

For `NCCSC(Cc1ccccc1)(c1ccccc1)c1ccc(F)cc1` (racemic), in series [4], half-maximal inhibition (IC50) was put at 578 nM.

Regarding `NCCSC(Cc1ccccc1)(c1ccccc1)c1ccc(Cl)cc1` (racemic), the GI50 turned out to be 3.72 µM with K562; 2050 nM with HCT-116; 6.79 µM with NCI-H1299; 4.26 µM in the series with BXPC-3; 5.55 µM in series [2]; 5.78 µM in series [3]. Moreover, the RatioGI50 in the series with KB-V1 is recorded as 1. The compound also yielded an IC50 in series [4] of 141 nM.

With `Cc1ccc(C(Cc2ccccc2)(SCCN)c2ccccc2)cc1` (racemic), the GI50 stood at 2.39 µM with K562; 1170 nM in the series with HCT-116; 2.5 µM with NCI-H1299; 4.07 µM with BXPC-3; 1.88 µM in series [2]; 1.72 µM in series [3]. This compound came in with a solubility (kinetic) at 2 h in series [1] of 6.5 µM (≈ 2.26 µg/mL). In addition, in the series with KB-V1, the RatioGI50 came to 1. Also, in series [4], the half-maximal inhibitory concentration (IC50) was 172 nM.

In [4], `NCCSC(Cc1ccccc1)(c1ccccc1)c1ccc(O)cc1` (racemic) came in with an IC50 of 666 nM.

In turn, `NCCSC(Cc1ccccc1)(c1ccccc1)c1ccc(Cl)c(Cl)c1` (racemic) showed an IC50 in series [4] of 229 nM.

In series [4], `NCCSC(Cc1ccccc1)(c1ccc(Cl)cc1)c1cccc(Cl)c1` (racemic) returned a 50% inhibitory concentration (IC50) of 437 nM.

The values above are taken from ChEMBL document CHEMBL2040733, “Doing the methylene shuffle--further insights into the inhibition of mitotic kinesin Eg5 with S-trityl L-cysteine” (Eur J Med Chem, 2012).
